# ChEMBL document CHEMBL3046894, “Synthesis and Herbicidal Activity of Pyrimidinyl Salicylic and Thiosalicylic Acids” (J Pestic Sci, 1996)
# Activity calls are given as the source filed them. The calls are words filed in the database; no cut-off is given here.
# How the values were obtained:
# [1] = system: Amaranthus retroflexus; assay: Post-emergence herbicidal activity against Amaranthus retroflexus assessed as growth inhibition at 25 g a.i/10 a applied 11 days after germination as foliar spray; format: functional, organism-based
# [2] = system: Zea mays; assay: Post-emergence phytotoxicity against Zea mays (maize) assessed as mortality at 6.3 g a.i/10 a applied 11 days after germination as foliar spray; format: organism-based; conditions: in vivo, other, 264 h
# [3] = (§1) Pre-emergence phytotoxicity against Zea mays (maize) assessed as mortality at 1.6 g a.i/10 a; format: organism-based; conditions: in vivo, 1.6 g a.i/10 a, read-out: mortality
# [4] = system: Digitaria sanguinalis; assay: Post-emergence herbicidal activity against Digitaria sanguinalis (hairy crabgrass) assessed as growth inhibition at 25 g a.i/10 a applied 11 days after germination as foliar spray; format: functional, organism-based
# [5] = system: Echinochloa crus-galli; assay: Post-emergence herbicidal activity against Echinochloa crus-galli (barnyard grass) assessed as growth inhibition at 25 g a.i/10 a applied 11 days after germination as foliar spray; format: functional, organism-based
# [6] = system: Persicaria nodosa; assay: Post-emergence herbicidal activity against Persicaria nodosa assessed as growth inhibition at 25 g a.i/10 a applied 11 days after germination as foliar spray; format: functional, organism-based
# [7] = system: Echinochloa crus-galli; assay: Pre-emergence herbicidal activity against Echinochloa crus-galli (barnyard grass) assessed as mortality at 6.3 g a.i/10 a; format: functional
# [8] = system: Zea mays; assay: Pre-emergence phytotoxicity against Zea mays (maize) assessed as mortality at 6.3 g a.i/10 a; format: organism-based; conditions: in vivo, other
# [9] = system: Glycine max; assay: Pre-emergence phytotoxicity against Glycine max (soybean) assessed as mortality at 6.3 g a.i/10 a; format: organism-based; conditions: in vivo, other
# [10] = system: Gossypium hirsutum; assay: (§2) Post-emergence phytotoxicity against Gossypium hirsutum (cotton) assessed as mortality at 1.6 g a.i/10 a applied 11 days after germination as foliar spray; format: organism-based; conditions: in vivo, other, 264 h
# [11] = system: Abutilon theophrasti; assay: Pre-emergence herbicidal activity against Abutilon theophrasti (velvetleaf) assessed as mortality at 1.6 g a.i/10 a; format: functional
# [12] = system: Digitaria sanguinalis; assay: Pre-emergence herbicidal activity against Digitaria sanguinalis (hairy crabgrass) assessed as growth inhibition at 25 g a.i/10 a; format: functional, organism-based
# [13] = system: Persicaria nodosa; assay: Pre-emergence herbicidal activity against Persicaria nodosa assessed as growth inhibition at 25 g a.i/10 a; format: functional, organism-based
# [14] = system: Zea mays; assay: Post-emergence phytotoxicity against Zea mays (maize) assessed as mortality at 1.6 g a.i/10 a applied 11 days after germination as foliar spray; format: organism-based; conditions: in vivo, other, 264 h
# [15] = system: Glycine max; assay: Post-emergence phytotoxicity against Glycine max (soybean) assessed as mortality at 1.6 g a.i/10 a applied 11 days after germination as foliar spray; format: organism-based; conditions: in vivo, other, 264 h
# [16] = system: Echinochloa crus-galli; assay: Pre-emergence herbicidal activity against Echinochloa crus-galli (barnyard grass) assessed as mortality at 1.6 g a.i/10 a; format: functional; conditions: Echinochloa crus-galli, pre-emergence
# [17] = system: Ipomoea lacunosa; assay: Post-emergence herbicidal activity against Ipomoea lacunosa assessed as mortality at 1.6 g a.i/10 a applied 11 days after germination as foliar spray; format: functional; conditions: 264 h
# [18] = system: Xanthium strumarium; assay: Pre-emergence herbicidal activity against Xanthium strumarium (cocklebur) assessed as mortality at 6.3 g a.i/10 a; format: functional
# [19] = system: Gossypium hirsutum; assay: (§3) Post-emergence phytotoxicity against Gossypium hirsutum (cotton) assessed as mortality at 6.3 g a.i/10 a applied 11 days after germination as foliar spray; format: organism-based; conditions: in vivo, other, 264 h
# [20] = system: Ipomoea lacunosa; assay: Pre-emergence herbicidal activity against Ipomoea lacunosa assessed as mortality at 6.3 g a.i/10 a; format: functional
# [21] = system: Echinochloa crus-galli; assay: Pre-emergence herbicidal activity against Echinochloa crus-galli (barnyard grass) assessed as growth inhibition at 25 g a.i/10 a; format: functional, organism-based
# [22] = system: Chenopodium album; assay: Post-emergence herbicidal activity against Chenopodium album assessed as growth inhibition at 25 g a.i/10 a applied 11 days after germination as foliar spray; format: functional, organism-based
# [23] = system: Cyperus iria; assay: Post-emergence herbicidal activity against Cyperus iria assessed as growth inhibition at 25 g a.i/10 a applied 11 days after germination as foliar spray; format: functional, organism-based
# [24] = system: Glycine max; assay: (§4) Pre-emergence phytotoxicity against Glycine max (soybean) assessed as mortality at 1.6 g a.i/10 a; format: organism-based; conditions: in vivo, other
# [25] = Pre-emergence phytotoxicity against Gossypium hirsutum (cotton) assessed as mortality at 6.3 g a.i/10 a; format: organism-based; conditions: in vivo, 6.3 g a.i/10 a
# [26] = system: Cyperus iria; assay: Pre-emergence herbicidal activity against Cyperus iria assessed as growth inhibition at 25 g a.i/10 a; format: functional, organism-based
# [27] = system: Ipomoea lacunosa; assay: Pre-emergence herbicidal activity against Ipomoea lacunosa assessed as mortality at 1.6 g a.i/10 a; format: functional
# [28] = system: Chenopodium album; assay: Pre-emergence herbicidal activity against Chenopodium album assessed as growth inhibition at 25 g a.i/10 a; format: functional, organism-based
# [29] = system: Xanthium strumarium; assay: Post-emergence herbicidal activity against Xanthium strumarium (cocklebur) assessed as mortality at 1.6 g a.i/10 a applied 11 days after germination as foliar spray; format: functional; conditions: 264 h
# [30] = system: Xanthium strumarium; assay: Pre-emergence herbicidal activity against Xanthium strumarium (cocklebur) assessed as mortality at 1.6 g a.i/10 a; format: functional
# [31] = system: Amaranthus retroflexus; assay: Pre-emergence herbicidal activity against Amaranthus retroflexus assessed as growth inhibition at 25 g a.i/10 a; format: functional, organism-based
# [32] = system: Abutilon theophrasti; assay: Pre-emergence herbicidal activity against Abutilon theophrasti (velvetleaf) assessed as mortality at 6.3 g a.i/10 a; format: functional
# [33] = system: Zea mays; assay: as §1; format: organism-based; conditions: in vivo, other
# [34] = system: Echinochloa crus-galli; assay: Post-emergence herbicidal activity against Echinochloa crus-galli (barnyard grass) assessed as mortality at 1.6 g a.i/10 a applied 11 days after germination as foliar spray; format: functional; conditions: 264 h
# [35] = system: Gossypium hirsutum; assay: Pre-emergence phytotoxicity against Gossypium hirsutum (cotton) assessed as mortality at 1.6 g a.i/10 a; format: organism-based; conditions: in vivo, other
# [36] = as §2; format: organism-based; conditions: in vivo, 1.6 g a.i/10 a
# [37] = as §3; format: organism-based; conditions: in vivo, 6.3 g a.i/10 a
# [38] = system: Glycine max; assay: Post-emergence phytotoxicity against Glycine max (soybean) assessed as mortality at 6.3 g a.i/10 a applied 11 days after germination as foliar spray; format: organism-based; conditions: in vivo, other, 264 h
# [39] = system: Amaranthus retroflexus; assay: Post-emergence herbicidal activity against Amaranthus retroflexus assessed as mortality per 10 acre; format: functional
# [40] = system: Ipomoea lacunosa; assay: Post-emergence herbicidal activity against Ipomoea lacunosa assessed as mortality per 10 acre; format: functional
# [41] = system: Echinochloa crus-galli; assay: Pre-emergence herbicidal activity against Echinochloa crus-galli (barnyard grass) assessed as mortality per 10 acre; format: functional
# [42] = system: Gossypium hirsutum; assay: Post-emergence phytotoxicity against Gossypium hirsutum (cotton) assessed as mortality per 10 acre; format: organism-based; conditions: in vivo
# [43] = system: Xanthium strumarium; assay: Pre-emergence herbicidal activity against Xanthium strumarium (cocklebur) assessed as mortality per 10 acre; format: functional
# [44] = system: Xanthium strumarium; assay: Post-emergence herbicidal activity against Xanthium strumarium (cocklebur) assessed as mortality per 10 acre; format: functional
# [45] = system: Persicaria nodosa; assay: Post-emergence herbicidal activity against Persicaria nodosa assessed as mortality per 10 acre; format: functional
# [46] = system: Echinochloa crus-galli; assay: Post-emergence herbicidal activity against Echinochloa crus-galli (barnyard grass) assessed as mortality per 10 acre; format: functional
# [47] = system: Ipomoea lacunosa; assay: Post-emergence herbicidal activity against Ipomoea lacunosa assessed as mortality at 6.3 g a.i/10 a applied 11 days after germination as foliar spray; format: functional; conditions: 264 h
# [48] = system: Amaranthus retroflexus; assay: Pre-emergence herbicidal activity against Amaranthus retroflexus assessed as mortality per 10 acre; format: functional
# [49] = system: Gossypium hirsutum; assay: Pre-emergence phytotoxicity against Gossypium hirsutum (cotton) assessed as mortality per 10 acre; format: organism-based; conditions: in vivo
# [50] = as §4; format: organism-based; conditions: in vivo, 1.6 g a.i/10 a, read-out: Activity
# [51] = system: Ipomoea lacunosa; assay: Pre-emergence herbicidal activity against Ipomoea lacunosa assessed as mortality per 10 acre; format: functional
# [52] = system: Persicaria nodosa; assay: Pre-emergence herbicidal activity against Persicaria nodosa assessed as mortality per 10 acre; format: functional
# [53] = Xanthium strumarium, pre-emergence
# [54] = Ipomoea lacunosa, pre-emergence
compound,measurement,setting,value
COc1cc(OC)nc(Oc2cccc([N+](=O)[O-])c2C(=O)O)n1,growth inhibition (GI),[1],Active
same,Activity,[2],Toxic
same,mortality,[3],< 5%
same,growth inhibition (GI),[4],inactive
same,growth inhibition (GI),[5],Active
same,growth inhibition (GI),[6],Active
same,mortality at 63 g/ha,"[7]; Echinochloa crus-galli, pre-emergence",< 5%
same,Activity,[8],Non-toxic
same,Activity,[9],Non-toxic
same,Activity,[10],Non-toxic
same,mortality at 16 g/ha,"[11]; Abutilon theophrasti, pre-emergence",< 5%
same,growth inhibition (GI),[12],inactive
same,growth inhibition (GI),[13],Active
same,Activity,[14],Non-toxic
same,Activity,[15],Toxic
same,mortality at 16 g/ha,[16],< 5%
same,mortality at 16 g/ha,[17],< 5%
same,mortality at 63 g/ha,[18]; [53],< 5%
same,Activity,[19],Non-toxic
same,mortality at 63 g/ha,[20]; [54],< 5%
same,growth inhibition (GI),[21],inactive
same,growth inhibition (GI),[22],Active
same,growth inhibition (GI),[23],Active
same,Activity,[24],Non-toxic
same,mortality,[25]; read-out: mortality,< 5%
same,growth inhibition (GI),[26],Active
same,mortality at 16 g/ha,[27]; [54],< 5%
same,growth inhibition (GI),[28],Active
same,mortality at 16 g/ha,[29],< 5%
same,mortality at 16 g/ha,[30]; [53],< 5%
same,growth inhibition (GI),[31],Active
COc1cc(OC)nc(Sc2cccc(C(F)(F)F)c2C(=O)O)n1,Activity,[32],<50%
same,Activity,[2],Toxic
same,Activity,[33],Non-toxic
same,mortality at 16 g/ha,[34],< 5%
same,Activity,[35],< 50%
same,Activity,[7],>90%
same,Activity,[8],Toxic
same,Activity,[9],Toxic
same,mortality at 264 h,[36],< 5%
same,Activity,[11],<50%
same,Activity,[14],Toxic
same,Activity,[15],Toxic
same,mortality at 264 h,[37],< 5%
same,Activity,[20],<50%
same,Activity,[38],Toxic
same,Activity,[24],Non-toxic
same,mortality,[25]; read-out: Activity,< 50%
same,Activity,[27],<50%
COc1cc(OC)nc(Sc2cccc(C)c2C(=O)O)n1,ED90,[39],Active
same,Activity,[2],Toxic
same,ED90,[40],50 gAi
same,Activity,[33],Toxic
same,ED90,[41],100 gAi
same,ED20,[42],100 gAi
same,ED90,[43],25 gAi
same,ED90,[44],25 gAi
same,mortality at 16 g/ha,[34],< 5%
same,Activity,[35],< 50%
same,ED90,[45],Active
same,ED90,[46],100 gAi
same,Activity,[8],Toxic
same,Activity,[9],Non-toxic
same,Activity,[10],Non-toxic
same,mortality at 63 g/ha,[47],< 5%
same,Activity,[14],Toxic
same,Activity,[15],Toxic
same,ED90,[48],Active
same,mortality at 16 g/ha,[17],< 5%
same,Activity,[18],<50%
same,Activity,[19],Non-toxic
same,Activity,[20],<50%
same,Activity,[38],Toxic
same,ED20,[49],100 gAi
same,mortality,[50],< 50%
same,mortality,[25]; read-out: Activity,< 50%
same,Activity,[27],<50%
same,ED90,[51],50 gAi
same,Activity,[30],<50%
same,ED90,[52],Active
